ChEMBL document CHEMBL1201862, “PubChem BioAssay data set” (2004)
Activity calls are given as the source filed them.

How the values were obtained:
[1] = target: T1, Sentrin-specific protease 1 (Homo sapiens, UniProt Q9P0U3); assay: Dose response confirmation of small molecule inhibitors of the catalytic domain of the SUMO protease, SENP1 in a FRET assay.; format: functional; details: read-out: IC50_Mean
T1 sequence (Q9P0U3 whole entry): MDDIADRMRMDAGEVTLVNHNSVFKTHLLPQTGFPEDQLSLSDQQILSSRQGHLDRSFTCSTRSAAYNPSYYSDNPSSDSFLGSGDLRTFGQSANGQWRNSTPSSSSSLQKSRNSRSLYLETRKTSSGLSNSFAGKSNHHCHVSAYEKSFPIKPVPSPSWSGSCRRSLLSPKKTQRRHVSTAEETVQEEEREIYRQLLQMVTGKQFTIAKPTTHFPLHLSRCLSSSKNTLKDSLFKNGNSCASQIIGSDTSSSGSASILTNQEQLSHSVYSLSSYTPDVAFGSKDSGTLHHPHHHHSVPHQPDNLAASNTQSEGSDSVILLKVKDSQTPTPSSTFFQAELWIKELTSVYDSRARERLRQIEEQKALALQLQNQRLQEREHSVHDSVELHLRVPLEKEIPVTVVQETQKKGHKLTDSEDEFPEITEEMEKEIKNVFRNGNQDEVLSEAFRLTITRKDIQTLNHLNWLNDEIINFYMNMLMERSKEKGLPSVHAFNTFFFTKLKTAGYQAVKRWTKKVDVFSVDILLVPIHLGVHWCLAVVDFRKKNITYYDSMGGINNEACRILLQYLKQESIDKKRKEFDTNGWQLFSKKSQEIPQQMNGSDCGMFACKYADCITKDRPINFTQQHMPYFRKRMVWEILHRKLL

[2] = target: T1, Sentrin-specific protease 1; assay: SENP1 catalytic domain blockers, concentration series – biochemical, kinetic FRET, dose response (AID 651697); format: functional; details: read-out: IC50_Mean
Beta-galactosidase = Beta-galactosidase (Escherichia coli, UniProt Q8VNN2); assay: Dose response counterscreen for EBI2 assay utilizing the enzyme, b-galactosidase.; format: functional
Chain of Beta-galactosidase (Q8VNN2 whole entry): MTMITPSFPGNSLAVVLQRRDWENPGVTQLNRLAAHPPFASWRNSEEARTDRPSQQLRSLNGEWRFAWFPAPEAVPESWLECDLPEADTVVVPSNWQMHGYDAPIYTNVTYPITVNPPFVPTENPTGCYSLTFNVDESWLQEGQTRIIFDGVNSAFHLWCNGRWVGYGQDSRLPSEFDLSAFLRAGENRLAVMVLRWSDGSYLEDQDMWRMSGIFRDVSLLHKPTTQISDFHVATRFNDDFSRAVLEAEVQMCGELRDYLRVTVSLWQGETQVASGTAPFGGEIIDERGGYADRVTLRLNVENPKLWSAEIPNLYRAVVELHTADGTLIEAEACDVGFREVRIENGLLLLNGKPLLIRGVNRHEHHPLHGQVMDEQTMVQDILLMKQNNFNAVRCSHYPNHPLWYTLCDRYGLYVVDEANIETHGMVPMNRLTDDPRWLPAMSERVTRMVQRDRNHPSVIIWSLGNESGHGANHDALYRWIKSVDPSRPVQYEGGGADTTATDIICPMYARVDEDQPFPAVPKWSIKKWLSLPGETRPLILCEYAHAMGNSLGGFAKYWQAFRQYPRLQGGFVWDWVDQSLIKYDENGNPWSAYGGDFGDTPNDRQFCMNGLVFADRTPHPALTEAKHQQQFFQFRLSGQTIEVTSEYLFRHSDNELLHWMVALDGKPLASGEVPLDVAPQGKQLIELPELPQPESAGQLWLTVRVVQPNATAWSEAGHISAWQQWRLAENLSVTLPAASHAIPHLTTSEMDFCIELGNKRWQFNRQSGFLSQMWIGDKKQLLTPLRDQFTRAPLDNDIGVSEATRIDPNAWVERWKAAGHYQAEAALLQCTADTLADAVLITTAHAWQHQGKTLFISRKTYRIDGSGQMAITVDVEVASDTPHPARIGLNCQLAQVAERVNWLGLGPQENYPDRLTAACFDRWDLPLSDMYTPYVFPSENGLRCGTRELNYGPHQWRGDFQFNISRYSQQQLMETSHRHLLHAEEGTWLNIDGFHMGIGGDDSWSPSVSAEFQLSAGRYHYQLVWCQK

cells [3] = format: functional, cell-based
cells [4] = format: functional, cell-based; remark: listed apart in the source
[5] = target: T2, Trace amine-associated receptor 1 (Homo sapiens, UniProt Q96RJ0); assay: Counterscreen for agonists of the human trace amine associated receptor 1 (hTAAR1): Fluorescence-based cell-based high throughput dose response assay to identify hTAAR1 agonist that also desensitize TAAR1 receptor response.; format: functional
T2 sequence (Q96RJ0 whole entry): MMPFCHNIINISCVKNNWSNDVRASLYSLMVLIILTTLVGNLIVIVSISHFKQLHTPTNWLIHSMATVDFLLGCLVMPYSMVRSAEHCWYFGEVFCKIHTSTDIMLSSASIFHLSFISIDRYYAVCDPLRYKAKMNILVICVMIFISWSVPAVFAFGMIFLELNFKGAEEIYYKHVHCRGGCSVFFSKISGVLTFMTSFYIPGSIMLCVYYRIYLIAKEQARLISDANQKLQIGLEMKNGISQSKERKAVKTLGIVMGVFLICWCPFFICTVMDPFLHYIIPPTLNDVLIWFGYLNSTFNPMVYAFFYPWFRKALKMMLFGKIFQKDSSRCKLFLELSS

[6] = target: T2, Trace amine-associated receptor 1; assay: Fluorescence-based cell-based high throughput dose response assay to identify agonists of the human trace amine associated receptor 1 (TAAR1).; format: functional
[7] = target: T3, RNA-binding protein pos-1 (Caenorhabditis elegans, UniProt G5EF15); assay: disruptors of C. elegans POS-1 RNA interaction – biochemical, fluorescence polarization, dose response (AID 1964);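 note: purified POS-1 fused to maltose binding protein made in E. coli; potency of compounds blocking POS-1 binding to fluorescent RNA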
T3 sequence (G5EF15 whole entry): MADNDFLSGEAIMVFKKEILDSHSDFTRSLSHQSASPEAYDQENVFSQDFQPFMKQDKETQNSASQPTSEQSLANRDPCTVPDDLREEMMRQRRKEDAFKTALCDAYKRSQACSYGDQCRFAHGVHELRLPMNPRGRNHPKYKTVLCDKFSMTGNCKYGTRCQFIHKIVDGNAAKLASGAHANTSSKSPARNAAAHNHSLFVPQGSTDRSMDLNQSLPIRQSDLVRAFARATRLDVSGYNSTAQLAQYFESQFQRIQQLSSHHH

[8] = target: T4, Small ubiquitin-related modifier 1 (Homo sapiens, UniProt P63165); assay: SUMO1 protein interaction blockers, potency – biochemical, fluorescence polarization, uHTS hits, dose response (AID 624382); format: functional; details: read-out: IC50_Mean
T4 sequence (P63165 whole entry): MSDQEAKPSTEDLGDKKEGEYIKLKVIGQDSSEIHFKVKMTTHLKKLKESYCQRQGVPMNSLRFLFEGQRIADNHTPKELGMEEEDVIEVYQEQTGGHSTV

[9] = target: T5, Zinc finger protein mex-5 (Caenorhabditis elegans, UniProt Q9XUB2); assay: potency of MEX-5 RNA-binding blockers – biochemical, C. elegans, fluorescence polarization, dose response (AID 1960)
T5 sequence (Q9XUB2 whole entry): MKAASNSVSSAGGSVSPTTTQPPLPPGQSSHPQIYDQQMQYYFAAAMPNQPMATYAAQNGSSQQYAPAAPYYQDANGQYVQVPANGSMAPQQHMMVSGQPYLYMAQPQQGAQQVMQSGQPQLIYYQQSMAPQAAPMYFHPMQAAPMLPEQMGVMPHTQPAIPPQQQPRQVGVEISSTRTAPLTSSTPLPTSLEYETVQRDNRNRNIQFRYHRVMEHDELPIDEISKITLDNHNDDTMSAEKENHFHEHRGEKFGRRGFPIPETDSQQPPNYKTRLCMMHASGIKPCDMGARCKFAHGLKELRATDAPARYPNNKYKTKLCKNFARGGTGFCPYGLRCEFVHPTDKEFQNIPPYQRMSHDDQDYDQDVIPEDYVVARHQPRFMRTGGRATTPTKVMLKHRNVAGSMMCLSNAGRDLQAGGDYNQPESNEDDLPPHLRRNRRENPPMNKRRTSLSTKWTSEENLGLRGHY

[10] = target: T4, Small ubiquitin-related modifier 1; assay: SUMO1 protein-protein binding blockers, potency – biochemical, FRET, dose response (AID 624383); format: functional; details: read-out: IC50_Mean
[11] = target: DNA dC->dU-editing enzyme APOBEC-3A (Homo sapiens, UniProt P31941); assay: Dose Response confirmation of small molecule APOBEC3A DNA Deaminase Inhibitors via a fluorescence-based single-stranded DNA deaminase assay. [Related pubchem assays (depositor defined):AID493011, AID493024]; format: functional
Chain of DNA dC->dU-editing enzyme APOBEC-3A (P31941 whole entry): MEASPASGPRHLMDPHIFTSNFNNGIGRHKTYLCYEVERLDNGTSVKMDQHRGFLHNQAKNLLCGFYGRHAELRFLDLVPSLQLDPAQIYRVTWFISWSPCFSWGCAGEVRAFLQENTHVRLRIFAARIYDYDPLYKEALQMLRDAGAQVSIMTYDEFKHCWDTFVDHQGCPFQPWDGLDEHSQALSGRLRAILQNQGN

[12] = target: T6, Histone-lysine N-methyltransferase NSD2 (Homo sapiens, UniProt O96028); format: biochemical
T6 sequence (O96028 whole entry): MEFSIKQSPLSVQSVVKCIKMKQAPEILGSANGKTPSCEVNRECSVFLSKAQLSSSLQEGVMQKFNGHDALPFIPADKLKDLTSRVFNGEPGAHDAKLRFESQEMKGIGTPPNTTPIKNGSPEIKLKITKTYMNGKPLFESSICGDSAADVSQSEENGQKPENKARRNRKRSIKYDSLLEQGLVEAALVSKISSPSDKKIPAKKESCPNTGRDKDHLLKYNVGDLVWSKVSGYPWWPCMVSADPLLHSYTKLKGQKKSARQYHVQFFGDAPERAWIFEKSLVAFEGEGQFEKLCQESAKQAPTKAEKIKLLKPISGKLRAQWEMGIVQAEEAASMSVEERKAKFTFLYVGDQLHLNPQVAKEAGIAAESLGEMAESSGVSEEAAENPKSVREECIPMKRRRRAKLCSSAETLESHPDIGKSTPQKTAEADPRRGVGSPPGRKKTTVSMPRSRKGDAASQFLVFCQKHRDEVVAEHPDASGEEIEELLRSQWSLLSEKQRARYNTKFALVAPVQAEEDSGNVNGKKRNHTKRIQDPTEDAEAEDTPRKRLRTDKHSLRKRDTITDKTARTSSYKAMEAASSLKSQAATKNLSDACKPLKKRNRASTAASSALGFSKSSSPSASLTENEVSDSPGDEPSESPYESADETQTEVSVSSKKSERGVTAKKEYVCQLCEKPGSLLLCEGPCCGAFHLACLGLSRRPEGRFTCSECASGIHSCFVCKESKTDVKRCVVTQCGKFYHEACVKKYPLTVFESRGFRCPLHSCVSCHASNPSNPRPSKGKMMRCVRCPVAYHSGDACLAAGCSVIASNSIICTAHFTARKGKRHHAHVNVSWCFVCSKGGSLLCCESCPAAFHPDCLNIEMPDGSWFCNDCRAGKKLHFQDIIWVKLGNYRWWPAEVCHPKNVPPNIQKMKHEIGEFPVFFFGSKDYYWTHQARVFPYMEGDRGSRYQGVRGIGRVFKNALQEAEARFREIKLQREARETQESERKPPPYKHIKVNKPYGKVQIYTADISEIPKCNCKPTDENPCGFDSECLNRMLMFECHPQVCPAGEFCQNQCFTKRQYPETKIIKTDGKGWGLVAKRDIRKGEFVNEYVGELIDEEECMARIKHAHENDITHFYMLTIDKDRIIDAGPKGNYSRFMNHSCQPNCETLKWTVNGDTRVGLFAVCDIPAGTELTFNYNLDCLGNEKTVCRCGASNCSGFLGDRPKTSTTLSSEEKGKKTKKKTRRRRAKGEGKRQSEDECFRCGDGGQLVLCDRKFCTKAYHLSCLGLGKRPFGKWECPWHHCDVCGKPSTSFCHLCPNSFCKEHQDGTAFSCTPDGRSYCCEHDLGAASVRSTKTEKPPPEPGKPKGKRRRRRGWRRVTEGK

Caspase-6 = target: T7, Caspase-6 (Homo sapiens, UniProt P55212); assay: inhibition of CASP6 peptide cleavage – biochemical, VEID-R110 fluorescence, cherry-pick, dose response (AID 720632)
T7 sequence (P55212 whole entry): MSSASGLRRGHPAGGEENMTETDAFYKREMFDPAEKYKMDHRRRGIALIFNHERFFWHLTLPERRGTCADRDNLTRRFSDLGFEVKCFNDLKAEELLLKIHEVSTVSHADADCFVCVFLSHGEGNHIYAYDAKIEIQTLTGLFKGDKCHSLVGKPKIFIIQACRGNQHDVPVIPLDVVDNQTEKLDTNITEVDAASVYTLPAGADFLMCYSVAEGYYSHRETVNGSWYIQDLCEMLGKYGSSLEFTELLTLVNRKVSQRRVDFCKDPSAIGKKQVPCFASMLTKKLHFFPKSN

[13] = target: DNA dC->dU-editing enzyme APOBEC-3G (Homo sapiens, UniProt Q9HC16); format: functional;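 note: Dose-response counterscreen measuring inhibition of APOBEC3G DNA deaminase activity, run while confirming APOBEC3A inhibitors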
Chain of DNA dC->dU-editing enzyme APOBEC-3G (Q9HC16 whole entry): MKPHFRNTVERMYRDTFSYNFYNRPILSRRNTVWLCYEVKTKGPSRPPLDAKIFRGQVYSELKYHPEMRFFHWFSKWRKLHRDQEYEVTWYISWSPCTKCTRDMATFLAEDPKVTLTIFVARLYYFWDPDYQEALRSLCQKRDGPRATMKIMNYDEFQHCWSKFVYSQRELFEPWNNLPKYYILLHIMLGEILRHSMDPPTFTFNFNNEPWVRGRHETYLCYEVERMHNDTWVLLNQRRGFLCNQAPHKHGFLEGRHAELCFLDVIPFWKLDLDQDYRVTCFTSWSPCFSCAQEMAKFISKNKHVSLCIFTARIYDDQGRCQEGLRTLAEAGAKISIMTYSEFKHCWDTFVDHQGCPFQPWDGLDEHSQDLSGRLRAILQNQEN

Large T antigen = Large T antigen (Simian virus 40, UniProt P03070); format: functional, Betapolyomavirus macacae;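 note: Confirmatory-stage PubChem screen for compounds that inhibit SV40 T antigen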
Chain of Large T antigen (P03070 whole entry): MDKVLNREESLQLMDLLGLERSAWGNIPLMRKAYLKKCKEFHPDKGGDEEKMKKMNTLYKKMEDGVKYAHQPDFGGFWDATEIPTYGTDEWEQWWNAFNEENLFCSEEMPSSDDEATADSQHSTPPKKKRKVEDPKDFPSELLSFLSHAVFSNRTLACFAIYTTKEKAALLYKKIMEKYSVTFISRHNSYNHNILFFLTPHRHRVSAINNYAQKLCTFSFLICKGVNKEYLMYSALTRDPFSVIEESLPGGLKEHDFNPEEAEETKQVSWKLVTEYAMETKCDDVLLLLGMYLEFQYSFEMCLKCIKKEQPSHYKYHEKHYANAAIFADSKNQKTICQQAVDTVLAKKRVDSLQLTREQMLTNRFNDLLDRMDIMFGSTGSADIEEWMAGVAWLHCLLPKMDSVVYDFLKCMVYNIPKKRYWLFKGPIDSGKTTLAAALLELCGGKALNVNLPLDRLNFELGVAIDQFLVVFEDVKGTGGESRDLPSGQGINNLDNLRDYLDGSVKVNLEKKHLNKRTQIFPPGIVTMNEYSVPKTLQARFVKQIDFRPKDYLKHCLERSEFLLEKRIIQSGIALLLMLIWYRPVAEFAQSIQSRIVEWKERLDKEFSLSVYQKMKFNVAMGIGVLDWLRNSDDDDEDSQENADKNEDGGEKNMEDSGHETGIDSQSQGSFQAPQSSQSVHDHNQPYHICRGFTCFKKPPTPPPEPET

[14] = viability of uninfected HEp-2 cells – cell-based, HTS, cytotoxicity control for RSV inhibitor project, dose response (AID 2410); format: functional; details: human respiratory syncytial virus
[15] = target: Endoplasmic reticulum aminopeptidase 1 (Homo sapiens, UniProt Q9NZ08); assay: inhibition of human ERAP1 enzyme activity – biochemical, cherry-pick, set 2, plate reader, dose response (AID 743314)
Chain of Endoplasmic reticulum aminopeptidase 1 (Q9NZ08 whole entry): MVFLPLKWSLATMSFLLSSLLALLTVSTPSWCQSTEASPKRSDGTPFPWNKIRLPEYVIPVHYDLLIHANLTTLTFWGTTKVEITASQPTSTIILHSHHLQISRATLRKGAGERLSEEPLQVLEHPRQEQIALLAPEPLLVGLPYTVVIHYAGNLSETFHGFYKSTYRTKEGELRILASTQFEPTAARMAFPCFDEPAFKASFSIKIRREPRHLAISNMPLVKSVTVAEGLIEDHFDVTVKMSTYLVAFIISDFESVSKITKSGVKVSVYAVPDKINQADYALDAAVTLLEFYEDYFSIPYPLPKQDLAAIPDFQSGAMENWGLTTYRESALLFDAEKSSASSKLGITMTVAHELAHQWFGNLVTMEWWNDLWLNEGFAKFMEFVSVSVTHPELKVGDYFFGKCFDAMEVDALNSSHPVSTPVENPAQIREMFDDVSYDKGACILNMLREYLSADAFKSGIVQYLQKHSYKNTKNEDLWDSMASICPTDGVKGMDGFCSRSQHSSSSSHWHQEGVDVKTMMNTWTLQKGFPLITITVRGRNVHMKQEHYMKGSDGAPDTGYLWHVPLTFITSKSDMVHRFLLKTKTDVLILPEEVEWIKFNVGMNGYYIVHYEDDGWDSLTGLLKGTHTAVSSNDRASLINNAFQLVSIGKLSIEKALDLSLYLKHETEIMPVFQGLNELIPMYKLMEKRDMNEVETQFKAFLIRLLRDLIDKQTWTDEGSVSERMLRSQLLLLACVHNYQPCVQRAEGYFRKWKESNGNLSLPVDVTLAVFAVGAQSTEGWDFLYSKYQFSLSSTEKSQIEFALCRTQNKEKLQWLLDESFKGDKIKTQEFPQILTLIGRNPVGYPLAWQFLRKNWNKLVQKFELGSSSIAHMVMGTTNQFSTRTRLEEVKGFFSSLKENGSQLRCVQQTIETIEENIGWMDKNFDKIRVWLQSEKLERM

Vero = assay: viability loss in Vero cells – cell-based, plate reader, cherry-pick samples, cytotoxicity control, dose response (AID 687020); format: functional; details: Chlorocebus sabaeus
[16] = T. cruzi growth inhibition in host cells, dose response, cell-based, plate reader, dry powder, set 2 (AID 652275); format: functional

Nc1ccc2c(c1)C(=O)N(CCCC(=O)O)C2=O
IC50 [1]: 19 µM (active) | IC50 [2]: 13.1 µM (active)

O=C(c1cc2ccccc2o1)N1CCN(S(=O)(=O)c2ccc(Cl)s2)CC1
IC50 (Beta-galactosidase): > 80 µM (inactive)

O=C(O)C1C2CCC(C2)C1C(=O)NCCc1ccc(F)cc1 (stereo not given)
IC50 (cells [3]): > 29.9 µM (inactive) | EC50 (cells [4]): > 29.9 µM (inactive) | IC50 [5]: > 29.9 µM (inactive) | EC50 [6]: 14.8 µM (inactive)

Nc1ccc(Nc2ccccc2)c(S(=O)(=O)O)c1
EC50 [7]: 108 µM (active) | IC50 [8]: > 66.6 µM (inactive) | EC50 [9]: 34 µM (active) | IC50 [10]: 12.8 µM (active) | IC50 [11]: 16.5 µM (active) | AC50 [12]: 8.41 µM (active) | AC50 (Caspase-6): 1.22 µM (active) | IC50 [13]: 34.1 µM (active) | IC50 (Large T antigen): 7.15 µM (active)

Cc1c(-c2ccccc2)c(=O)oc2cc(O)ccc12
CC50 [14]: 42.4 µM (active) | AC50 [15]: 4.79 µM (active)

O=C(CSc1nnc(-c2ccc(O)cc2)n1Cc1ccccc1)NNC(=O)c1ccc(Br)cc1
IC50 (Beta-galactosidase): > 80 µM (inactive)

O=C(Nc1ccccc1)Nc1ccno1
IC50 (cells [3]): > 29.9 µM (inactive) | EC50 (cells [4]): > 29.9 µM (inactive) | IC50 [5]: 4.63 µM (active) | EC50 [6]: 4.65 µM (active)

COc1ccc(C(CNC(=O)COc2cc(C)ccc2Cl)N2CCCCC2)cc1 (stereo not given)
AC50 (Vero): 17.6 µM (active)

COCCNc1nc(Nc2ccccc2Cl)c2sccc2n1
AC50 (Vero): 6.94 µM (active)

CC(=O)c1ccc(OCCCC(=O)OCC(=O)Nc2ccc3[nH]c(O)nc3c2)cc1
IC50 [8]: > 66.6 µM (inactive) | IC50 [10]: 16.9 µM (active)

C#CCNC(=O)C[C@@H]1C[C@@]2(C(=O)OC)CCCCC=C2N(Cc2cccc3ccccc23)C1=O
AC50 (Vero): 36.6 µM (active)

COc1cccc(C(=O)N[C@@H](Cc2cccnc2)C(=O)N2CCC[C@H]2C(=O)NCCc2ccccc2Cl)c1
IC50 (cells [3]): > 29.9 µM (inactive) | EC50 (cells [4]): > 29.9 µM (inactive) | IC50 [5]: 4.58 µM (active) | EC50 [6]: 2.18 µM (active)

C[C@H]1CN([C@@H](C)CO)C(=O)c2cccc(NC(=O)c3ccncc3)c2O[C@@H]1CN(C)Cc1ccc(F)c(Cl)c1
AC50 [16]: 0.00198 µM (active)

Cc1cccc(-c2ccc([C@H]3[C@H](CO)N4CCCCN(Cc5cncnc5)C[C@@H]34)cc2)c1
AC50 [16]: 0.198 µM (active)

CC(C)N1C[C@@H](CNCc2ccc(Oc3ccccc3)cc2)Oc2c(NC(=O)c3ccncc3)cccc2C1=O
AC50 [16]: 0.00666 µM (active)
